Data published in ChEMBL document CHEMBL3739265, “Synthesis and biological evaluation of negative allosteric modulators of the Kv11.1(hERG) channel” (Eur J Med Chem, 2015).

Experiments:
[1] = molecular target: Kv11.1 (KCNH2, hERG) potassium channel (Homo sapiens, UniProt Q12809); experiment: Allosteric modulation of [3H]-dofetilide binding at Kv11.1 channel (unknown origin) expressed in HEK293 cells at 10 uM after 6 mins by scintillation spectrometer analysis relative to control; assay type: cell-based; conditions: HEK293 cells expressing Kv11.1 channel, probe [3H]-dofetilide, read-out: Activity
[2] = molecular target: T1, Voltage-gated inwardly rectifying potassium channel KCNH2 (Homo sapiens, UniProt Q12809); experiment: Binding affinity to Kv11.1 channel (unknown origin)
[3] = molecular target: T1, Voltage-gated inwardly rectifying potassium channel KCNH2; experiment: Induction of dissociation of [3H]-dofetilide from Kv11.1 channel (unknown origin) assessed as dissociation rate expressed in HEK293 cells at 50 uM after 1 hr relative to control; assay type: cell-based; conditions: hek293, 1 h
[4] = molecular target: T1, Voltage-gated inwardly rectifying potassium channel KCNH2; experiment: Allosteric modulation of Kv11.1 channel (unknown origin) expressed in HEK293 cells assessed as shift of inhibition constant for dofetilide-induced displacement of [3H]-dofetilide binding at 10 uM after 1 hr relative to control; assay type: cell-based; conditions: hek293, 1 h
[5] = molecular target: T1, Voltage-gated inwardly rectifying potassium channel KCNH2; experiment: Allosteric modulation of Kv11.1 channel (unknown origin) expressed in HEK293 cells assessed as shift of inhibition constant for astemizole-induced displacement of [3H]-dofetilide binding at 10 uM after 1 hr relative to control; assay type: cell-based; conditions: hek293, 1 h
[6] = molecular target: T1, Voltage-gated inwardly rectifying potassium channel KCNH2; experiment: Induction of dissociation of [3H]-dofetilide from Kv11.1 channel (unknown origin) assessed as dissociation rate expressed in HEK293 cells after 1 hr; assay type: cell-based

Kv11.1 (KCNH2, hERG) potassium channel, sequence (Q12809 whole entry): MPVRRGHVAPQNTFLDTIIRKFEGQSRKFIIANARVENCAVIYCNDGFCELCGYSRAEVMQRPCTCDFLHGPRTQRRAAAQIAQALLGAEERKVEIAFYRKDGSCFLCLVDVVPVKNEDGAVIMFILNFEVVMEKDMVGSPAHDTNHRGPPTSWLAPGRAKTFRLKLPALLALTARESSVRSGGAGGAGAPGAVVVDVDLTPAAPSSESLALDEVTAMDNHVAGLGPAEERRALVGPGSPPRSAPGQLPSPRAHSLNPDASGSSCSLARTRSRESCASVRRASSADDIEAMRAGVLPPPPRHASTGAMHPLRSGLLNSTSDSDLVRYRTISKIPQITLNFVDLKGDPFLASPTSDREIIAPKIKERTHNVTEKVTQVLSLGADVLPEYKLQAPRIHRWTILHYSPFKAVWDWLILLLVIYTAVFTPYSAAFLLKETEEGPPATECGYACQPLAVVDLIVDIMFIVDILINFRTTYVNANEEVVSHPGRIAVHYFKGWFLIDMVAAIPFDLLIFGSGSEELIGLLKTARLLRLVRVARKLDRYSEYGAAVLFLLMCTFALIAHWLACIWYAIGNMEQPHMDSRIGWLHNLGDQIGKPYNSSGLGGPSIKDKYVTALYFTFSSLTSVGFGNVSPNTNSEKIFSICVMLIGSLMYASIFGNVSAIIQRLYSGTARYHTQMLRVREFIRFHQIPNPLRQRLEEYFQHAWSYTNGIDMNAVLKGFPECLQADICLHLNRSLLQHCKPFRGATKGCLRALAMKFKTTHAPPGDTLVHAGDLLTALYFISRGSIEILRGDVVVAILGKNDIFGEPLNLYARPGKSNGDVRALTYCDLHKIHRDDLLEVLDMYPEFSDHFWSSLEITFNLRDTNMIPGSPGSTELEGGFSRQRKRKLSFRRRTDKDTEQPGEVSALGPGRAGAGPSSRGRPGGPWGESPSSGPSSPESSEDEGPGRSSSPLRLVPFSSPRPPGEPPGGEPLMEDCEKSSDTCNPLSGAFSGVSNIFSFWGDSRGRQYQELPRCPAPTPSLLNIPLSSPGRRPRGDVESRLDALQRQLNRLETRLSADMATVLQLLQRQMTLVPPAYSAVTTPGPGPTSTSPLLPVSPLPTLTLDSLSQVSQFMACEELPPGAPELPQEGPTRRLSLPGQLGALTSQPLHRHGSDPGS
T1 sequence (Q12809 whole entry): as above

Row | SMILES | activity at 0.1 h, 10 µM [1] | other results
1 | O=C(COc1ccc2ccccc2c1Br)Nc1cccnc1 | 66% | Ki [2]: 0.0048 µM
2 | O=C(COc1ccc(C(=O)c2ccccc2)cc1)Nc1cccnc1 | 78% | –
3 | O=C(COc1ccc(C(=O)c2cccc(F)c2Br)cc1)Nc1cccnc1 | 85% | –
4 | O=C(COc1ccc(C(=O)c2ccc(Cl)cc2)cc1)Nc1cccnc1 | 104% | –
5 | Cc1ccc(NC(=O)COc2ccc(C(=O)c3ccccc3Br)cc2)cn1 | 105% | –
6 | COc1ccncc1NC(=O)COc1ccc(C(=O)c2ccccc2Br)cc1 | 105% | –
7 | O=C(COc1ccc(C(=O)c2ccccc2Br)cc1)Nc1cncnc1 | 87% | –
8 | Cc1ccc(C(=O)c2ccc(OCC(=O)Nc3cccnc3)cc2)cc1 | 97% | –
9 | O=C(COc1ccc(C(=O)c2cccc(Br)c2)cc1)Nc1cccnc1 | 57% | fold change (FC) [3]: 1.4; fold change (FC) [4]: 1.4; fold change (FC) [5]: 1.4
10 | O=C(COc1ccc(C(=O)c2ccccc2)c(Br)c1)Nc1cccnc1 | 96% | –
11 | O=C(COc1ccc(C(=O)c2cccc(Cl)c2)cc1)Nc1cccnc1 | 43% | fold change (FC) [3]: 1.7; fold change (FC) [4]: 3.3; fold change (FC) [5]: 2.8
12 | O=C(COc1ccc(C(=O)c2ccccc2Br)cc1)Nc1ccc(Cl)nn1 | 92% | –
13 | Cc1ccncc1NC(=O)COc1ccc(C(=O)c2ccccc2Br)cc1 | 108% | –
14 | O=C(COc1ccc(C(=O)c2cccc(F)c2)cc1)Nc1cccnc1 | 47% | fold change (FC) [3]: 1.6; fold change (FC) [4]: 1.9; fold change (FC) [5]: 1.9
15 | O=C(COc1ccc(C(=O)c2cccc(I)c2)cc1)Nc1cccnc1 | 62% | –
16 | O=C(COc1ccc(C(=O)c2ccccc2F)cc1)Nc1cccnc1 | 85% | –
17 | O=C(COc1ccc(C(=O)c2ccccc2Br)cc1)Nc1cccnc1 | 44% | fold change (FC) [3]: 3; fold change (FC) [4]: 2.5; EC50 [6]: 12 µM; fold change (FC) [5]: 4.1
18 | COc1ccc(NC(=O)COc2ccc(C(=O)c3ccccc3Br)cc2)cn1 | 124% | –
19 | O=C(COc1ccc(C(=O)c2ccc(F)cc2)cc1)Nc1cccnc1 | 65% | –
20 | COc1cncc(NC(=O)COc2ccc(C(=O)c3ccccc3Br)cc2)c1 | 107% | –
21 | O=C(COc1ccc(C(=O)c2ccccc2Br)cc1)Nc1ccc(Cl)nc1 | 95% | –
22 | O=C(COc1ccc(C(=O)c2ccccc2Cl)cc1)Nc1cccnc1 | 71% | –
23 | Cc1cncc(NC(=O)COc2ccc(C(=O)c3ccccc3Br)cc2)c1 | 121% | –
24 | O=C(COc1ccc2c(c1)-c1ccccc1C2=O)Nc1cccnc1 | 79% | –
25 | O=C(COc1ccc(C(=O)c2ccccc2Br)cc1)Nc1cnc2ccccc2c1 | 87% | –
26 | O=C(COc1ccc(C(=O)c2cc(F)ccc2Br)cc1)Nc1cccnc1 | 38% | fold change (FC) [3]: 4.1; fold change (FC) [4]: 4.6; EC50 [6]: 4.6 µM; fold change (FC) [5]: 6.3
27 | O=C(COc1ccc(C(=O)c2ccccc2I)cc1)Nc1cccnc1 | 72% | –
28 | O=C(COc1ccc(C(=O)c2ccccc2Br)cc1)Nc1cnccn1 | 92% | –
29 | O=C(COc1ccc(C(=O)c2ccccc2)cc1Br)Nc1cccnc1 | 96% | –
